Laboratory results published in publication PMC3919717 (PLoS ONE, 2014).

Assays:
Details in all cases: 50 nM enzyme; BAEE 0.04-0.2 mg/ml; 37°C; native glycosylated enzyme
RV-FVPδ = system: RV-FVPδ
RV-FVPγ = system: RV-FVPγ
RV-FVPβ = system: RV-FVPβ
RV-FVPα = type: biochemical, Daboia russelii

CCOC(=O)[C@H](CCCNC(=N)N)NC(=O)c1ccccc1 [BAEE]
Km (RV-FVPδ): 0.159 mg/mL
Km (RV-FVPγ): 0.159 mg/mL
Km (RV-FVPβ): 0.156 mg/mL
Km (RV-FVPα): 0.143 mg/mL
